Measured values reported in PubChem BioAssay (NCI).
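All cell lines were grown in 96-well plates and treated with compound for 48 hours. GI50: concentration for 50% inhibition of growth. At the TGI there is no net growth.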

Tests used:
Assay in all cases: NCI-60 cell line screen, 48 h
LOX IMVI melanoma = test system: LOX IMVI melanoma
UACC-257 melanoma = test system: UACC-257 melanoma
MOLT-4 leukemia = test system: MOLT-4 leukemia
BT-549 breast = test system: BT-549 breast
SN12C renal = test system: SN12C renal
UO-31 renal = test system: UO-31 renal
PC-3 prostate = test system: PC-3 prostate
A549 NSCLC = test system: A549 NSCLC
SF-539 CNS = test system: SF-539 CNS
NCI-H226 lung = test system: NCI-H226 lung
KM12 colon = test system: KM12 colon
OVCAR-3 ovarian = test system: OVCAR-3 ovarian
SK-MEL-5 melanoma = test system: SK-MEL-5 melanoma
A498 renal = test system: A498 renal
K-562 leukemia = test system: K-562 leukemia
SK-OV-3 ovarian = test system: SK-OV-3 ovarian
HT29 colon = test system: HT29 colon
OVCAR-5 ovarian = test system: OVCAR-5 ovarian
CAKI-1 renal = test system: CAKI-1 renal
RPMI-8226 leukemia = test system: RPMI-8226 leukemia
IGROV1 ovarian = test system: IGROV1 ovarian
HCC-2998 colon = test system: HCC-2998 colon
TK-10 renal = test system: TK-10 renal
U251 CNS = test system: U251 CNS
MDA-MB-231 breast = test system: MDA-MB-231 breast
SF-295 CNS = test system: SF-295 CNS
UACC-62 melanoma = test system: UACC-62 melanoma
SK-MEL-2 melanoma = test system: SK-MEL-2 melanoma
EKVX NSCLC = test system: EKVX NSCLC
HL-60(TB) leukemia = test system: HL-60(TB) leukemia
HS 578T breast = test system: HS 578T breast
SF-268 CNS = test system: SF-268 CNS
MCF7 breast = test system: MCF7 breast
OVCAR-8 ovarian = test system: OVCAR-8 ovarian
COLO 205 colon = test system: COLO 205 colon
RXF 393 renal = test system: RXF 393 renal
NCI-H460 lung = test system: NCI-H460 lung
T-47D breast = test system: T-47D breast
HCT-15 colon = test system: HCT-15 colon
NCI-H522 lung = test system: NCI-H522 lung
HCT-116 colon = test system: HCT-116 colon
HOP-92 NSCLC = test system: HOP-92 NSCLC
ACHN renal = test system: ACHN renal
SNB-19 CNS = test system: SNB-19 CNS
NCI-H23 lung = test system: NCI-H23 lung
MALME-3M melanoma = test system: MALME-3M melanoma
M14 melanoma = test system: M14 melanoma
DU-145 prostate = test system: DU-145 prostate
786-0 renal = test system: 786-0 renal
NCI/ADR-RES ovarian = test system: NCI/ADR-RES ovarian
SW-620 colon = test system: SW-620 colon
HOP-62 NSCLC = test system: HOP-62 NSCLC
MDA-MB-435 = test system: MDA-MB-435

## CN1CCN(c2cc3nc4ccccc4n(-c4ccc(Cl)cc4)c-3cc2=N)CC1
LOX IMVI melanoma
  GI50: 15.7 µM
  TGI: 36.6 µM
UACC-257 melanoma
  GI50: 19.2 µM
  TGI: 39.2 µM
MOLT-4 leukemia
  GI50: 12.8 µM
  TGI: 32 µM
BT-549 breast
  GI50: 41.6 µM
  TGI: > 100 µM
SN12C renal
  GI50: 19.4 µM
  TGI: 41.4 µM
UO-31 renal
  GI50: 29.2 µM
  TGI: > 100 µM
PC-3 prostate
  GI50: 16.1 µM
  TGI: 86.8 µM
A549 NSCLC
  GI50: 24.1 µM
  TGI: 60.8 µM
SF-539 CNS
  GI50: 26.6 µM
  TGI: 73.7 µM
NCI-H226 lung
  GI50: 60.7 µM
  TGI: > 100 µM
KM12 colon
  GI50: 16.6 µM
  TGI: 43.8 µM
OVCAR-3 ovarian
  GI50: 2.78 µM
  TGI: 16.7 µM
SK-MEL-5 melanoma
  GI50: 16.3 µM
  TGI: 32.7 µM
A498 renal
  GI50: > 100 µM
  TGI: > 100 µM
K-562 leukemia
  GI50: 0.356 µM
  TGI: 23.5 µM
SK-OV-3 ovarian
  GI50: > 100 µM
  TGI: > 100 µM
HT29 colon
  GI50: > 100 µM
  TGI: > 100 µM
OVCAR-5 ovarian
  GI50: 24.1 µM
  TGI: 60.8 µM
CAKI-1 renal
  GI50: 24.6 µM
  TGI: 82 µM
RPMI-8226 leukemia
  GI50: 12.1 µM
  TGI: 35.1 µM
IGROV1 ovarian
  GI50: 17.2 µM
  TGI: 53.5 µM
HCC-2998 colon
  GI50: 23.1 µM
  TGI: 54.9 µM
TK-10 renal
  GI50: 36.1 µM
  TGI: > 100 µM
U251 CNS
  GI50: 18.9 µM
  TGI: 49.7 µM
MDA-MB-231 breast
  GI50: 10.6 µM
  TGI: 49.9 µM
SF-295 CNS
  GI50: 23.4 µM
  TGI: 59.5 µM
UACC-62 melanoma
  GI50: 22.9 µM
  TGI: 54.8 µM
SK-MEL-2 melanoma
  GI50: 33.7 µM
  TGI: > 100 µM
EKVX NSCLC
  GI50: 30 µM
  TGI: > 100 µM
HL-60(TB) leukemia
  TGI: 4.35 µM
HS 578T breast
  GI50: 20.7 µM
  TGI: 95.7 µM
SF-268 CNS
  GI50: 32.1 µM
  TGI: > 100 µM
MCF7 breast
  GI50: 35.6 µM
  TGI: > 100 µM
OVCAR-8 ovarian
  GI50: 13.7 µM
  TGI: 38.4 µM
COLO 205 colon
  GI50: > 100 µM
  TGI: > 100 µM
RXF 393 renal
  GI50: 20.3 µM
  TGI: 99.8 µM
NCI-H460 lung
  GI50: 39.6 µM
  TGI: > 100 µM
T-47D breast
  GI50: > 100 µM
  TGI: > 100 µM
HCT-15 colon
  GI50: 23.4 µM
  TGI: 81.3 µM
NCI-H522 lung
  GI50: 21.5 µM
  TGI: 52.6 µM
HCT-116 colon
  GI50: 22.2 µM
  TGI: 57.2 µM
HOP-92 NSCLC
  GI50: 28.7 µM
  TGI: 94.8 µM
ACHN renal
  GI50: 23.4 µM
  TGI: > 100 µM
SNB-19 CNS
  GI50: > 100 µM
  TGI: > 100 µM
NCI-H23 lung
  GI50: 15.9 µM
  TGI: 32.9 µM
MALME-3M melanoma
  GI50: 17.2 µM
  TGI: 33.1 µM
M14 melanoma
  GI50: 21.4 µM
  TGI: 43.8 µM
DU-145 prostate
  GI50: 37.8 µM
  TGI: > 100 µM
786-0 renal
  GI50: 31.4 µM
  TGI: > 100 µM
NCI/ADR-RES ovarian
  GI50: 32.1 µM
  TGI: > 100 µM
SW-620 colon
  GI50: 23.9 µM
  TGI: > 100 µM
HOP-62 NSCLC
  GI50: 23.3 µM
  TGI: 65 µM
MDA-MB-435
  GI50: 17.5 µM
  TGI: 32.6 µM
